The text below walks through data of patent US20240109853A1 (Shanghai Yao Yuan Biotechnology Co., Ltd., priority 2020, published 2024).

Experiment [1] has as its system ALPK1-dependent NFκB reporter gene activation in HEK293 cells stably expressing an NF-kB reporter (G9 cells). The experiment in a line: NFκB gene reporter alkaline phosphatase assay. Type of experiment: cell-based. Conditions: read-out: NFkB assay IC50. In outline: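 HEK293 G9 cells carrying an NF-κB-driven alkaline phosphatase reporter, pretreated 30 min with serially diluted compound, then stimulated with D-glycero-D-manno-6-fluoro-heptose-1β-S-ADP. Reporter activity read with chromogenic pNPP substrate; IC50 from four-parameter logistic fit.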

Experiment [2] concerns the target hALPK1-V1092A (Homo sapiens (Human), UniProt Q96QP1, V1092A). The experiment in a line: cell-based.
Method: Accordingly, we used IL-8 secretion as an indicator of activated ALPK1 inhibition in cells expressing these mutations.
Transfection was performed according to manufacturer's protocols (Lipofectamine™ 3000, ThermoFisher). Transfected cells were selected, seeded onto 96-well plates and treated with serial dilutions of the test compounds for 6.5 hr. Following treatment, cell viability was determined using a luminescent cell viability assay (Cell Counting-Lite Assay or “CCL Assay” from Vazyme Biotech Co., Ltd.) and cell free supernatants were collected and analyzed for IL-8 protein by IL-8 ELISA as described above.
Fresh medium and compound were added at 18 hours. Cell viability and IL-8 secretion were determined 6 hours after the second addition of compound, using the CCL assay and IL-8 ELISA as described above.
Experiment [3] deals with ALPK1 (Homo sapiens (Human), UniProt Q96QP1). Description: ALPK1 in vitro kinase assay (HTRF of TIFA phosphorylation). Type of experiment: biochemical. (Time-resolved FRET reads energy transfer from a long-lived donor to a nearby acceptor.)
Chain of ALPK1 (Q96QP1 whole entry): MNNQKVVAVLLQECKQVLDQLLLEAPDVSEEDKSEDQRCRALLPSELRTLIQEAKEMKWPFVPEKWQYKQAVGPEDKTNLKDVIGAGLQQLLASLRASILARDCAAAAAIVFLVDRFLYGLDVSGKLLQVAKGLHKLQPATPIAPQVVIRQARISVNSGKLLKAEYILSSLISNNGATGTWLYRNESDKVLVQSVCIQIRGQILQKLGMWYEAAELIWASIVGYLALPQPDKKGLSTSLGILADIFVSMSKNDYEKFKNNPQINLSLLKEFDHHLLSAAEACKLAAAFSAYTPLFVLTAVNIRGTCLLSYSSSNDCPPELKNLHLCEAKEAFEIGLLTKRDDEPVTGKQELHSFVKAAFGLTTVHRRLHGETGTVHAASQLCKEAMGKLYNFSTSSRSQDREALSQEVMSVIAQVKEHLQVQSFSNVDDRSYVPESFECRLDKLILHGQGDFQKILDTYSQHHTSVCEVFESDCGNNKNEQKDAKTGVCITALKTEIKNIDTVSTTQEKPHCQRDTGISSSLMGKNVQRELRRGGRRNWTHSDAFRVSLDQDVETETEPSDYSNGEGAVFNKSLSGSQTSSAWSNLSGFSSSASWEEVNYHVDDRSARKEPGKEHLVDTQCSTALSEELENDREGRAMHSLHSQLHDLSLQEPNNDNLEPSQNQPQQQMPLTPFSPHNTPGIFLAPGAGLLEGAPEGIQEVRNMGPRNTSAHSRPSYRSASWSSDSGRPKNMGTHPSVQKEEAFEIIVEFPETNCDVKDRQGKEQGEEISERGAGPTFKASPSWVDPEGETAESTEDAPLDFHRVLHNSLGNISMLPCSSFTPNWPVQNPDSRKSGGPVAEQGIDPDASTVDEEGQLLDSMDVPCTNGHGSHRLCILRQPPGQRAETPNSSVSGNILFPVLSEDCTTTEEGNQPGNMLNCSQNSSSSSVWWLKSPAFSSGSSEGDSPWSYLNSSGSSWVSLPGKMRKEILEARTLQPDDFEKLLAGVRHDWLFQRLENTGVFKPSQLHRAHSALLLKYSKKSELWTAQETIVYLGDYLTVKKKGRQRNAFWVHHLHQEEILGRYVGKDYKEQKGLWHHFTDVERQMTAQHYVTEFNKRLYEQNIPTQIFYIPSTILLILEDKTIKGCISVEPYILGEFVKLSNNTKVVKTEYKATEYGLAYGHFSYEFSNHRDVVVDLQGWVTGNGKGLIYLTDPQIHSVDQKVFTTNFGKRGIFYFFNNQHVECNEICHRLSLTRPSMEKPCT
The mark [4] stands for this setting: ALPK1 2 nM, TIFA substrate, ADP-Heptose activator, HTRF readout.

Like-named read-outs stand apart in the source and are kept apart here.

Broadly, the IC50 is the concentration that inhibits the measured activity by half.

Chain of hALPK1-V1092A (Q96QP1 whole entry V1092A): as the sequence (Q96QP1 whole entry) above, with V1092A counted along it

For the compound `C#C[C@@](C)(c1ccc(Cl)cc1)c1csc(NC(=O)NC(C)CO)n1` (stereo in doubt) [Example A312, 1-(4-(2-(4-chlorophenyl)but-3-yn-2-yl)thiazol-2-yl)-3-(1-hydroxypropan-2-yl)urea], the IC50 in experiment [1] (Homo sapiens, HEK293) came out at 2120 nM; in experiment [2] it was 16000 nM.

In the case of `C#Cc1ccc(C(C)(C#C)c2csc(NC(=O)c3c(F)cc(N4CCNCC4)cc3F)n2)cc1` (stereo not shown) [Example C042, N-[4-[1-(4-ethynylphenyl)-1-methyl-prop-2-ynyl]thiazol-2-yl]-2,6-difluoro-4-piperazin-1-yl-benzamide], the values for the IC50 in experiment [3] (setting [4]) and in experiment [2] were 101 nM and 225 nM, respectively.

In the case of `C#C[C@@](C)(c1ccc(Cl)cc1)c1csc(NC(=O)NCC(C)O)n1` (stereo in doubt) [Example A319, 1-(4-(2-(4-chlorophenyl)but-3-yn-2-yl)thiazol-2-yl)-3-(2-hydroxypropyl)urea], the IC50 in experiment [1] is 670 nM; in experiment [2], 7860 nM.

As to `C#C[C@@](C)(c1ccc(C)cc1)c1csc(NC(=O)c2c(F)cc(N3CCNCC3)cc2F)n1` (stereo in doubt) [Example C041, 2,6-difluoro-N-[4-[1-methyl-1-(p-tolyl)prop-2-ynyl]thiazol-2-yl]-4-piperazin-1-yl-benzamide], the IC50 in experiment [3] (setting [4]) was determined as 7 nM; in experiment [2], 954 nM.

Take `CC(c1ccccc1)c1csc(NC(=O)c2c(F)cc(N3CCNCC3)cc2F)n1` (stereo not shown) [Example C002, 2,6-difluoro-N-(4-(1-phenylethyl)thiazol-2-yl)-4-(piperazin-1-yl)benzamide]: the IC50 in experiment [3] (setting [4]) worked out at 47 nM; in experiment [2], 3370 nM.

As to `C#C[C@@](C)(c1ccc(Cl)cc1)c1csc(NC(=O)NCCC(C)(C)O)n1` [Example A249, (S)-1-(4-(2-(4-chlorophenyl)but-3-yn-2-yl)thiazol-2-yl)-3-(3-hydroxy-3-methylbutyl)urea], the IC50 worked out at 128 nM in experiment [3]; 670 nM in experiment [1] (Homo sapiens, HEK293); 11700 nM in experiment [2].

In the case of `C#C[C@@](C)(c1ccc(Cl)cc1)c1csc(NC(=O)NC(C)CO)n1` (stereo in doubt) [Example A313, 1-(4-(2-(4-chlorophenyl)but-3-yn-2-yl)thiazol-2-yl)-3-(1-hydroxypropan-2-yl)urea], the IC50 was 2820 nM in experiment [1] and 10200 nM in experiment [2].

In the case of `COCC(C)(c1ccc(Cl)cc1)c1csc(NC(=O)c2c(F)cc(N3CCNCC3)cc2F)n1` (stereo not shown) [Example C016, N-(4-(2-(4-chlorophenyl)-1-methoxypropan-2-yl)thiazol-2-yl)-2,6-difluoro-4-(piperazin-1-yl)benzamide], the results for the IC50 in experiment [3] (setting [4]) and in experiment [2] were 16 nM and 1590 nM, respectively.

Turning to `C#C[C@@](C)(c1ccc(Cl)cc1)c1csc(NC(=O)c2c(F)ccc(N3CCNCC3)c2F)n1` (stereo in doubt) [Example B076, N-(4-(2-(4-chlorophenyl)but-3-yn-2-yl)thiazol-2-yl)-2,6-difluoro-3-(piperazin-1-yl)benzamide], the IC50 in experiment [3] (setting [4]) came out at 85 nM; in experiment [2], 128 nM.

Consider `C#C[C@@](C)(c1ccc(Cl)cc1)c1csc(NC(=O)NCC(C)O)n1` (stereo in doubt) [Example A317, 1-(4-(2-(4-chlorophenyl)but-3-yn-2-yl)thiazol-2-yl)-3-(2-hydroxypropyl)urea], for which the IC50 in experiment [1] (Homo sapiens, HEK293) was 970 nM; in experiment [2], 1930 nM.

On to `C#CC(C)(c1ccc(F)cc1)c1csc(NC(=O)c2c(F)cc(N3CCNCC3CO)cc2F)n1` (stereo not shown) [Example B099, 2,6-difluoro-N-[4-[1-(4-fluorophenyl)-1-methyl-prop-2-ynyl]thiazol-2-yl]-4-[2-(hydroxymethyl)piperazin-1-yl]benzamide], for which the values for the IC50 in experiment [3] (setting [4]) and in experiment [2] were 30 nM and 427 nM, respectively.

Consider `C#C[C@](C)(c1ccc(Cl)cc1)c1csc(NC(=O)c2c(F)ccc(N3CCNCC3)c2F)n1` (stereo in doubt) [Example B075, N-(4-(2-(4-chlorophenyl)but-3-yn-2-yl)thiazol-2-yl)-2,6-difluoro-3-(piperazin-1-yl)benzamide], for which the figures for the IC50 in experiment [3] (setting [4]) and in experiment [2] were 308 nM and 13000 nM, respectively.

Turning to `C#C[C@@](C)(c1ccc(OC)cc1)c1csc(NC(=O)c2c(F)cc(N3CCNCC3)cc2F)n1` (stereo in doubt) [Example C048, 2,6-difluoro-N-(4-(2-(4-methoxyphenyl)but-3-yn-2-yl)thiazol-2-yl)-4-(piperazin-1-yl)benzamide], the IC50 in experiment [3] (setting [4]) was 16 nM; in experiment [2] it was 5570 nM.

In the case of `C#C[C@@](C)(c1ccc(Cl)cc1)c1csc(NC(N)=O)n1` [Example A252, (S)-1-(4-(2-(4-chlorophenyl)but-3-yn-2-yl)thiazol-2-yl)urea], the IC50 in experiment [3] was found to be 30 nM; in experiment [1] (Homo sapiens, HEK293), 530 nM; in experiment [2], 723 nM.

Turning to `C#C[C@](C)(c1ccc(Cl)cc1)c1csc(NC(N)=O)n1` [Example A251, (R)-1-(4-(2-(4-chlorophenyl)but-3-yn-2-yl)thiazol-2-yl)urea], the IC50 in experiment [3] was 81 nM; in experiment [1] (Homo sapiens, HEK293) it was 1670 nM; in experiment [2], 892 nM.

Regarding `C#C[C@](C)(c1ccc(Cl)cc1)c1csc(NC(=O)NC(C)CO)n1` (stereo in doubt) [Example A314, 1-(4-(2-(4-chlorophenyl)but-3-yn-2-yl)thiazol-2-yl)-3-(1-hydroxypropan-2-yl)urea], the IC50 in experiment [1] (Homo sapiens, HEK293) stood at 800 nM; in experiment [2], 4000 nM.

In the case of `CC#CC(C)(c1ccc(Cl)cc1)c1csc(NC(=O)c2c(F)cc(N3CCNCC3)cc2F)n1` (stereo not shown) [Example C039, N-(4-(2-(4-chlorophenyl)pent-3-yn-2-yl)thiazol-2-yl)-2,6-difluoro-4-(piperazin-1-yl)benzamide], the concentration for half-maximal inhibition (IC50) in experiment [3] (setting [4]) is 36 nM; in experiment [2], 959 nM.

Regarding `C#C[C@](C)(c1ccc(Cl)cc1)c1csc(NC(=O)c2ccc(N3CCNCC3)cc2)n1` (stereo in doubt) [Example B068, N-(4-(2-(4-chlorophenyl)but-3-yn-2-yl)thiazol-2-yl)-4-(piperazin-1-yl)benzamide], the IC50 in experiment [3] (setting [4]) was 530 nM; in experiment [2], 27100 nM.

For `C#C[C@@](C)(c1ccc(F)cc1)c1csc(NC(=O)c2c(F)cc(N3CCNCC3)cc2F)n1` (stereo in doubt) [Example C035, 2,6-difluoro-N-(4-(2-(4-fluorophenyl)but-3-yn-2-yl)thiazol-2-yl)-4-(piperazin-1-yl)benzamide], the IC50 in experiment [3] (setting [4]) was found to be 19 nM; in experiment [2], 67 nM.

`C#C[C@](C)(c1ccc(Cl)c(F)c1)c1csc(NC(=O)c2c(F)cc(N3CCNCC3)cc2F)n1` (stereo in doubt) [Example C037, N-(4-(2-(4-chloro-3-fluorophenyl)but-3-yn-2-yl)thiazol-2-yl)-2,6-difluoro-4-(piperazin-1-yl)benzamide]: the IC50 in experiment [3] (setting [4]) worked out at 151 nM; in experiment [2], 8300 nM.

For the compound `C#C[C@](C)(c1ccc(Cl)cc1)c1csc(NC(=O)NC(C)CO)n1` (stereo in doubt) [Example A315, 1-(4-(2-(4-chlorophenyl)but-3-yn-2-yl)thiazol-2-yl)-3-(1-hydroxypropan-2-yl)urea], the figures for the IC50 in experiment [1] and in experiment [2] were 650 nM and 2770 nM, respectively.

As for `C#C[C@@](C)(c1ccc(Cl)cc1)c1csc(NC(=O)c2ccc(N3CCNCC3)cc2)n1` (stereo in doubt) [Example B067, N-(4-(2-(4-chlorophenyl)but-3-yn-2-yl)thiazol-2-yl)-4-(piperazin-1-yl)benzamide], the figures for the half-maximal inhibitory concentration (IC50) in experiment [3] (setting [4]) and in experiment [2] were 90 nM and 215 nM, respectively.

On to `C#C[C@@](C)(c1ccc(Cl)cc1)c1csc(NC(=O)c2c(F)cc(N3CCN(C)CC3)cc2F)n1` [Example C011, (S)-N-(4-(2-(4-chlorophenyl)but-3-yn-2-yl)thiazol-2-yl)-2,6-difluoro-4-(4-methylpiperazin-1-yl)benzamide], for which the IC50 was found to be 18 nM in experiment [3] (setting [4]) and 353 nM in experiment [2].

As for `C#C[C@@](C)(c1ccc(Cl)c(F)c1)c1csc(NC(=O)c2c(F)cc(N3CCNCC3)cc2F)n1` (stereo in doubt) [Example C038, N-(4-(2-(4-chloro-3-fluorophenyl)but-3-yn-2-yl)thiazol-2-yl)-2,6-difluoro-4-(piperazin-1-yl)benzamide], the half-maximal inhibitory concentration (IC50) in experiment [3] (setting [4]) stood at 17 nM; in experiment [2] it was 352 nM.

On to `C#CC(C)(c1ccc(OC)cc1)c1csc(NC(=O)c2c(F)cc(N3CCNCC3CO)cc2F)n1` (stereo not shown) [Example B100, 2,6-difluoro-4-[2-(hydroxymethyl)piperazin-1-yl]-N-[4-[1-(4-methoxyphenyl)-1-methyl-prop-2-ynyl]thiazol-2-yl]benzamide], for which the figures for the IC50 in experiment [3] (setting [4]) and in experiment [2] were 21 nM and 429 nM, respectively.

On to `CC(c1ccccc1)(c1ccc(Cl)cc1)c1csc(NC(=O)c2c(F)cc(N3CCNCC3)cc2F)n1` (stereo not shown) [Example C046, N-(4-(1-(4-chlorophenyl)-1-phenylethyl)thiazol-2-yl)-2,6-difluoro-4-(piperazin-1-yl)benzamide], for which the IC50 in experiment [3] (setting [4]) was 377 nM; in experiment [2], 4450 nM.

With `COC[C@@](C)(c1ccccc1)c1csc(NC(=O)c2c(F)cc(N3CCNCC3)cc2F)n1` [Example C018, (S)-2,6-difluoro-N-(4-(1-methoxy-2-phenylpropan-2-yl)thiazol-2-yl)-4-(piperazin-1-yl)benzamide], the IC50 came to 36 nM in experiment [3] (setting [4]) and 1920 nM in experiment [2].

`C#C[C@](C)(c1ccc(Cl)cc1)c1csc(NC(=O)NCC(C)O)n1` (stereo in doubt) [Example A316, 1-(4-(2-(4-chlorophenyl)but-3-yn-2-yl)thiazol-2-yl)-3-(2-hydroxypropyl)urea]: the 50% inhibitory concentration (IC50) in experiment [1] (Homo sapiens, HEK293) stood at 1810 nM; in experiment [2], 16400 nM.

Consider `C#C[C@](C)(c1ccc(C)cc1)c1csc(NC(=O)c2c(F)cc(N3CCNCC3)cc2F)n1` (stereo in doubt) [Example C040, 2,6-difluoro-N-[4-[1-methyl-1-(p-tolyl)prop-2-ynyl]thiazol-2-yl]-4-piperazin-1-yl-benzamide], for which the IC50 in experiment [3] (setting [4]) stood at 29 nM; in experiment [2] it was 68 nM.
